Measured values: the NIST ThermoML archive (doi:10.1016/j.jct.2014.08.018)
Values joined by “and” are separate entries in the source; they are usually repeats but may differ in a detail not shown here. Equal values may be shown once. Numbers after ± are expanded uncertainties.

Details: 101.33 kPa, Liquid; for mass density: Vibrating tube method; for viscosity: Capillary tube (Ostwald / Ubbelohde) method

SMILES | mass density (288.15 K) | viscosity (288.17 K) | viscosity (298.11 K) | mass density (298.15 K) | viscosity (308.05 K) | mass density (308.15 K) | viscosity (318.06 K) | mass density (318.15 K) | viscosity (328.08 K) | mass density (328.15 K) | further results
CCCCCCCCCCCCCC[P+](CCCCCC)(CCCCCC)CCCCCC.N#C[N-]C#N [tetradecyl(trihexyl)phosphonium dicyanamide] | 903.4 ± 0.9 kg/m3 | 665.15 ± 30 mPa·s | 362.9 ± 13 mPa·s | 897.6 ± 0.9 kg/m3 | 210.07 ± 6.4 mPa·s | 891.9 ± 0.9 kg/m3 | 129.77 ± 3.3 mPa·s | 886.3 ± 0.9 kg/m3 | 83.81 ± 1.9 mPa·s | 880.7 ± 0.9 kg/m3 | viscosity (288.31 K): 664.13 ± 34 mPa·s; viscosity (298.07 K): 362.32 ± 16 mPa·s; viscosity (308.09 K): 210.09 ± 8.3 mPa·s; viscosity (318.01 K): 129.78 ± 4.6 mPa·s; viscosity (328.03 K): 83.95 ± 2.8 mPa·s
CCCCCC[n+]1ccn(C)c1.O=S(=O)([N-]S(=O)(=O)C(F)(F)F)C(F)(F)F | 1381.3 ± 1.5 kg/m3 | – | – | 1372.2 ± 1.5 kg/m3 | 44.87 ± 0.94 mPa·s | 1363 ± 1.5 kg/m3 | – | 1353.9 ± 1.4 kg/m3 | 21.92 ± 0.46 mPa·s and 21.92 ± 0.52 mPa·s | 1344.9 ± 1.4 kg/m3 | viscosity (288.19 K): 115.89 ± 2.8 mPa·s and 115.81 ± 3.1 mPa·s; viscosity (298.12 K): 69.47 ± 1.5 mPa·s and 69.62 ± 1.7 mPa·s; viscosity (308.11 K): 44.86 ± 1.1 mPa·s; viscosity (317.95 K): 30.77 ± 0.74 mPa·s; viscosity (318.07 K): 30.77 ± 0.65 mPa·s
CCCCn1cc[n+](C)c1.N#CN=C=[N-] [1-butyl-3-methylimidazolium dicyanamide] | 1066.9 ± 1.1 kg/m3 | 45.86 ± 0.96 mPa·s | 30.15 ± 0.63 mPa·s and 30.15 ± 0.93 mPa·s | 1060.5 ± 1.1 kg/m3 | 20.91 ± 0.44 mPa·s | 1054.2 ± 1.1 kg/m3 | 15.19 ± 0.32 mPa·s | 1047.9 ± 1.1 kg/m3 | 11.55 ± 0.24 mPa·s | 1041.7 ± 1.1 kg/m3 | viscosity (288.22 K): 45.82 ± 1.4 mPa·s; viscosity (308.12 K): 20.94 ± 0.64 mPa·s; viscosity (318.05 K): 15.21 ± 0.47 mPa·s; viscosity (328.05 K): 11.56 ± 0.36 mPa·s
